Test results taken from patent US9790210B2, “N-(monocyclic aryl),N'-pyrazolyl-urea, thiourea, guanidine and cyanoguanidine compounds as TrkA kinase inhibitors” (Array BioPharma Inc., priority 2012, dated 2017).
Counter-ions that a name gives are not always drawn.

biological target: TrkA (Homo sapiens, UniProt P04629); assay: TrkA LanthaScreen Eu Kinase Binding Assay; set-up: 6HIS tagged cytoplasmic domain from Invitrogen, Catalog No. PV3144; purchased Invitrogen PV3144; details: averaged IC50; TR-FRET binding assay; read-out: TrkA Enzyme IC50
Sequence (P04629 440-796 limits assumed): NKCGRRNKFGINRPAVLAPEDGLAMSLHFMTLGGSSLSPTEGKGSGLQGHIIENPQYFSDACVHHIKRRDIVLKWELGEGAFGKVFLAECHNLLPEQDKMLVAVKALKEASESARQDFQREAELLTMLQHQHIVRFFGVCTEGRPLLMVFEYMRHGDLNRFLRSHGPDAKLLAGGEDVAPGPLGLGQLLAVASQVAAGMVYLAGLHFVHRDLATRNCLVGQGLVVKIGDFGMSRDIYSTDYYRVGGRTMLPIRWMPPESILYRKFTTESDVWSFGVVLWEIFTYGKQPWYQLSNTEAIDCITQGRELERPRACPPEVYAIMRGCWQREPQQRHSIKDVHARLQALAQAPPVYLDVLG
Experimental: TrkA binding activity was determined in a TrkA LanthaScreen™ Eu Kinase Binding Assay. 5 nM His-tagged recombinant human TrkA (6HIS tagged cytoplasmic domain from Invitrogen, Catalog No. PV3144) was incubated with 4 nM Alexa-Fluor® Tracer 236 (Invitrogen Cat. No. PV5592), 2 nM biotinylated anti-His (Invitrogen Cat. No. PV6090), and 2 nM europium-labeled Streptavidin (Invitrogen Cat. No. PV5899), in buffer (25 mM MOPS, pH 7.5, 5 mM MgCl2, 0.005% Triton X-100). Three fold serial dilutions of compounds of the invention in DMSO were added to a final percentage of 2% DMSO. After 60-minute incubation at 22° C., the reaction was measured using the EnVision mutlimode plate reader (PerkinElmer) via TR-FRET dual wavelength detection at […]. The percent of control was calculated using a ratiometric emission factor. The IC50 values were determined by fitting a four parameter model to the percent of control data.
Table A provides averaged IC50 values for compounds of the invention when tested in the assay of Example A, where A represents an averaged IC50 value<100 nM; B represents an averaged IC50 value from 100 to 1,000 nM; and C represents an averaged IC50 value from 1,000 to 10,000 nM.

IC50 [nM] | SMILES
< 100 | COCCCc1cc(Cl)c(Cl)cc1NC(=O)Nc1c(C)c(OC[C@H](O)CO)nn1-c1ccccc1 [Example 21, (R)-1-(4,5-dichloro-2-(3-methoxypropyl)phenyl)-3-(3-(2,3-dihydroxypropoxy)-4-methyl-1-phenyl-1H-pyrazol-5-yl)urea]
< 100 | CNC(=O)c1nn(-c2ccccc2)c(NC(=O)Nc2cc(Cl)c(Cl)cc2CCCOC)c1C [Example 16, 5-(3-(4,5-dichloro-2-(3-methoxypropyl)phenyl)ureido)-N,4-dimethyl-1-phenyl-1H-pyrazole-3-carboxamide]
< 100 | COCCCc1cc(Cl)c(Cl)cc1NC(=O)Nc1c(C)c(OC[C@@H]2CCCNC2)nn1-c1ccccc1 [Example 47, (R)-1-(4,5-dichloro-2-(3-methoxypropyl)phenyl)-3-(4-methyl-1-phenyl-3-(piperidin-3-ylmethoxy)-1H-pyrazol-5-yl)urea hydrochloride]
< 100 | COCCOc1cc(Cl)c(F)cc1NC(=O)Nc1c(C)c(-c2cnn(C)c2)nn1-c1ccccc1 [Example 5, 1-(4-chloro-5-fluoro-2-(2-methoxyethoxy)phenyl)-3-(1′,4-dimethyl-1-phenyl-1H,1′H-[3,4′-bipyrazol]-5-yl)urea]
< 100 | COCCOc1cc(Cl)c(Cl)cc1NC(=O)Nc1c(C)c(-c2ccc(=O)n(C)c2)nn1-c1ccccc1 [Example 8, 1-(4,5-dichloro-2-(2-methoxyethoxy)phenyl)-3-(4-methyl-3-(1-methyl-6-oxo-1,6-dihydropyridin-3-yl)-1-phenyl-1H-pyrazol-5-yl)urea]
100 to 1000 | COCCOc1nc(C(F)(F)F)ccc1NC(=O)Nc1c(C)c(-c2cnn(C)c2)nn1-c1ccccc1 [Example 7, 1-(1′,4-dimethyl-1-phenyl-1H,1′H-[3,4′-bipyrazol]-5-yl)-3-(2-(2-methoxyethoxy)-6-(trifluoromethyl)pyridin-3-yl)urea]
< 100 | COCCCc1cc(Cl)c(Cl)cc1NC(=O)Nc1c(C)c(OC[C@H]2CNCCO2)nn1-c1ccccc1 [Example 44, (R)-1-(4,5-dichloro-2-(3-methoxypropyl)phenyl)-3-(4-methyl-3-(morpholin-2-ylmethoxy)-1-phenyl-1H-pyrazol-5-yl)urea hydrochloride]
< 100 | COCCCc1cc(Cl)c(Cl)cc1NC(=O)Nc1c(C)c(OCC2CN(C)C2)nn1-c1ccccc1 [Example 37, 1-(4,5-dichloro-2-(3-methoxypropyl)phenyl)-3-(4-methyl-3-((1-methylazetidin-3-yl)methoxy)-1-phenyl-1H-pyrazol-5-yl)urea]
< 100 | COCCCc1cc(Cl)c(Cl)cc1NC(=O)Nc1c(C)c(OC[C@@H]2CN(C)CCO2)nn1-c1ccccc1 [Example 31, (S)-1-(4,5-dichloro-2-(3-methoxypropyl)phenyl)-3-(4-methyl-3-((4-methylmorpholin-2-yl)methoxy)-1-phenyl-1H-pyrazol-5-yl)urea]
< 100 | COCCCc1ccc(Cl)cc1NC(=O)Nc1c(C)c(-c2cnn(C)c2)nn1-c1ccccc1 [Example 9, 1-(5-chloro-2-(3-methoxypropyl)phenyl)-3-(1′,4-dimethyl-1-phenyl-1H,1′H-[3,4′-bipyrazol]-5-yl)urea]
< 100 | CNC(=O)c1nn(-c2ccccc2)c(NC(=O)Nc2cc(Cl)c(Cl)cc2CC(F)(F)COC)c1C [Example 27, 5-(3-(4,5-dichloro-2-(2,2-difluoro-3-methoxypropyl)phenyl)ureido)-N,4-dimethyl-1-phenyl-1H-pyrazole-3-carboxamide]
< 100 | COCCCc1ccc(C(F)(F)F)cc1NC(=O)Nc1c(C)c(-c2ccc(=O)n(C)c2)nn1-c1ccccc1 [Example 25, 1-(2-(3-methoxypropyl)-5-(trifluoromethyl)phenyl)-3-(4-methyl-3-(1-methyl-6-oxo-1,6-dihydropyridin-3-yl)-1-phenyl-1H-pyrazol-5-yl)urea]
< 100 | COCCCc1cc(Cl)c(Cl)cc1NC(=O)Nc1c(C)c(C(=O)NC2CCOCC2)nn1-c1ccccc1 [Example 36, 5-(3-(4,5-dichloro-2-(3-methoxypropyl)phenyl)ureido)-4-methyl-1-phenyl-N-(tetrahydro-2H-pyran-4-yl)-1H-pyrazole-3-carboxamide]
< 100 | COCCCc1cc(Cl)c(Cl)cc1NC(=O)Nc1c(C)c(C2(C#N)CCOCC2)nn1-c1ccccc1 [Example 14, 1-(3-(4-cyanotetrahydro-2H-pyran-4-yl)-4-methyl-1-phenyl-1H-pyrazol-5-yl)-3-(4,5-dichloro-2-(3-methoxypropyl)phenyl)urea]
< 100 | COCCCc1cc(Cl)c(Cl)cc1NC(=O)Nc1c(C)c(OC2CCNCC2)nn1-c1ccccc1 [Example 42, 1-(4,5-dichloro-2-(3-methoxypropyl)phenyl)-3-(4-methyl-1-phenyl-3-(piperidin-4-yloxy)-1H-pyrazol-5-yl)urea hydrochloride]
< 100 | COCCOc1nc(C)c(Cl)cc1NC(=O)Nc1c(C)c(-c2cnn(C)c2)nn1-c1ccccc1 [Example 6, 1-(5-chloro-2-(2-methoxyethoxy)-6-methylpyridin-3-yl)-3-(1′,4-dimethyl-1-phenyl-1H,1′H-[3,4′-bipyrazol]-5-yl)urea]
< 100 | COCCCc1cc(Cl)c(Cl)cc1NC(=O)Nc1c(C)c(OCCN2CCNCC2)nn1-c1ccccc1 [Example 39, 1-(4,5-dichloro-2-(3-methoxypropyl)phenyl)-3-(4-methyl-1-phenyl-3-(2-(piperazin-1-yl)ethoxy)-1H-pyrazol-5-yl)urea dihydrochloride]
< 100 | COCCCc1cc(Cl)c(Cl)cc1NC(=O)Nc1c(C)c(OC[C@@H]2CCCN(C)C2)nn1-c1ccccc1 [Example 35, (R)-1-(4,5-dichloro-2-(3-methoxypropyl)phenyl)-3-(4-methyl-3-((1-methylpiperidin-3-yl)methoxy)-1-phenyl-1H-pyrazol-5-yl)urea]
< 100 | COCCCc1cc(F)c(C(F)(F)F)cc1NC(=O)Nc1c(C)c(OC[C@H](O)CO)nn1-c1ccccc1 [Example 22, (R)-1-(3-(2,3-dihydroxypropoxy)-4-methyl-1-phenyl-1H-pyrazol-5-yl)-3-(4-fluoro-2-(3-methoxypropyl)-5-(trifluoromethyl)phenyl)urea]
< 100 | COCCCc1cc(Cl)c(Cl)cc1NC(=O)Nc1c(C)c(OC2CCN(C)CC2)nn1-c1ccccc1 [Example 30, 1-(4,5-dichloro-2-(3-methoxypropyl)phenyl)-3-(4-methyl-3-((1-methylpiperidin-4-yl)oxy)-1-phenyl-1H-pyrazol-5-yl)urea]
1000 to 10000 | COCCOc1nc(C)ccc1NC(=O)Nc1c(C)c(-c2cnn(C)c2)nn1-c1ccccc1 [Example 1, 1-(1′,4-dimethyl-1-phenyl-1H,1′H-[3,4′-bipyrazol]-5-yl)-3-(2-(2-methoxyethoxy)-6-methylpyridin-3-yl)urea]
100 to 1000 | COCCOc1cc(Cl)ccc1NC(=O)Nc1c(C)c(-c2cnn(C)c2)nn1-c1ccccc1 [Example 11, 1-(4-chloro-2-(2-methoxyethoxy)phenyl)-3-(1′,4-dimethyl-1-phenyl-1H,1′H-[3,4′-bipyrazol]-5-yl)urea]
< 100 | COCCCc1cc(Cl)c(Cl)cc1NC(=O)Nc1c(C)c(OC[C@H]2CN(C)CCO2)nn1-c1ccccc1 [Example 32, (R)-1-(4,5-dichloro-2-(3-methoxypropyl)phenyl)-3-(4-methyl-3-((4-methylmorpholin-2-yl)methoxy)-1-phenyl-1H-pyrazol-5-yl)urea]
< 100 | CNC(=O)c1nn(-c2ccccc2)c(NC(=O)Nc2cc(C(F)(F)F)ccc2CCCOC)c1C [Example 26, 5-(3-(2-(3-methoxypropyl)-5-(trifluoromethyl)phenyl)ureido)-N,4-dimethyl-1-phenyl-1H-pyrazole-3-carboxamide]
< 100 | COCCOc1ccc(C(F)(F)F)cc1NC(=O)Nc1c(C)c(-c2cnn(C)c2)nn1-c1ccccc1 [Example 2, 1-(1′,4-dimethyl-1-phenyl-1H,1′H-[3,4′-bipyrazol]-5-yl)-3-(2-(2-methoxyethoxy)-5-(trifluoromethyl)phenyl)urea]
< 100 | COCC(F)(F)Cc1cc(Cl)c(Cl)cc1NC(=O)Nc1c(C)c(-c2ccc(=O)n(C)c2)nn1-c1ccccc1 [Example 20, 1-(4,5-dichloro-2-(2,2-difluoro-3-methoxypropyl)phenyl)-3-(4-methyl-3-(1-methyl-6-oxo-1,6-dihydropyridin-3-yl)-1-phenyl-1H-pyrazol-5-yl)urea]
< 100 | COCCCc1cc(Cl)c(Cl)cc1NC(=O)Nc1c(C)c(OCCN2CCN(C)CC2)nn1-c1ccccc1 [Example 28, 1-(4,5-dichloro-2-(3-methoxypropyl)phenyl)-3-(4-methyl-3-(2-(4-methylpiperazin-1-yl)ethoxy)-1-phenyl-1H-pyrazol-5-yl)urea]
< 100 | COCCCc1cc(Cl)c(Cl)cc1NC(=O)Nc1c(C)c(-c2ccc(=O)n(C)c2)nn1-c1ccccc1 [Example 13, 1-(4,5-dichloro-2-(3-methoxypropyl)phenyl)-3-(4-methyl-3-(1-methyl-6-oxo-1,6-dihydropyridin-3-yl)-1-phenyl-1H-pyrazol-5-yl)urea]
< 100 | COCCCc1cc(Cl)c(Cl)cc1NC(=O)Nc1c(C)c(OCC2CCCN2)nn1-c1ccccc1 (centres unmarked) [Example 43, 1-(4,5-dichloro-2-(3-methoxypropyl)phenyl)-3-(4-methyl-1-phenyl-3-(pyrrolidin-2-ylmethoxy)-1H-pyrazol-5-yl)urea hydrochloride]
